Reference: the SangsterLogP compilation

Experiment: method code SF-GLC,AS, from DOI: 10.1021/jf60192a013, PMID: 4840568

CCCCCCCCNP(=O)(OC)SC (configuration not stated)
logP: 1.51

COP(=O)(NCC(C)C)SC (configuration not stated)
logP: 0.97

CCC(C)NP(=O)(OC)SC (configuration not stated)
logP: 0.95

CCCOP(N)(=O)SCCC (configuration not stated)
logP: 1.23

COP(N)(=O)SC (configuration not stated)
logP: -0.66

CCOP(N)(=O)SCC (configuration not stated)
logP: 0.15

CCCCNP(=O)(OC)SC (configuration not stated)
logP: 0.94

COP(=O)(NC(C)(C)C)SC (configuration not stated)
logP: 0.96

CNP(=O)(OC)SC (configuration not stated)
logP: -0.07

CCNP(=O)(OC)SC (configuration not stated)
logP: 0.07

CCCCCCNP(=O)(OC)SC (configuration not stated)
logP: 1.11

CCCNP(=O)(OC)SC (configuration not stated)
logP: 0.65
